The term GI50 denotes the concentration giving 50% growth inhibition.

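How tested: cells in 96-well plates exposed to compound for 48 hours at five concentrations. Abbreviation: GI50, concentration required for 50% inhibition of growth.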 Active and inactive are the calls of the source. Cut-off read from the data, not from the text of the source: active = GI50 up to about 1.1 µM and inactive = higher.

The values below come from ChEMBL document CHEMBL1201862, “PubChem BioAssay data set” (2004).

Among the test systems are HOP-92; EKVX; LOX IMVI; NCI-H460; HCT-15; UO-31; Malme-3M; MOLT-4; NCI-H226; OVCAR-3; RXF 393; SF-268; SR; 786-0; KM12; SK-MEL-5; UACC-62; PC-3.
What all share (experiment): DTP human tumour cell line panel, 48 h

As for `CCSc1c2ccccc2c(-c2nc(F)nc(F)n2)n1CCc1ccccc1`, the GI50 in the test with HOP-92 was > 100 µM (inactive); with EKVX, > 100 µM (inactive); in the test on LOX IMVI it was > 100 µM (inactive); in the test on NCI-H460 it was > 100 µM (inactive); with HCT-15 it was above 100 µM; in the test on UO-31, > 100 µM (inactive). Also, the GI50 was > 100 µM (inactive) with Malme-3M; 56.4 µM (inactive) with MOLT-4; > 100 µM (inactive) in the test on NCI-H226; > 100 µM (inactive) in the test on OVCAR-3; > 100 µM (inactive) in the test on RXF 393; > 100 µM (inactive) in the test on SF-268. The values for the GI50 in the test on SR, in the test with 786-0 and in the test on KM12 were 51.3 µM (inactive), > 100 µM (inactive) and > 100 µM (inactive), respectively.

As for `CC(=O)OC1CCCn2c1nc1c2C(=O)C(C)=C(N2CC2)C1=O` (stereo unspecified), the GI50 in the test on HOP-92 is 27.8 µM (inactive); in the test with EKVX, 0.721 µM (active); in the test with LOX IMVI, 0.303 µM (active); in the test with SK-MEL-5, 0.185 µM (active); with NCI-H460, 0.0798 µM (active); with HCT-15, 0.207 µM. In addition, the GI50 is 0.605 µM (active) with UO-31; 0.301 µM (active) in the test on UACC-62; 0.219 µM (active) in the test on Malme-3M; 19.4 µM (inactive) in the test with MOLT-4; 0.318 µM (active) in the test with NCI-H226; 0.329 µM (active) with OVCAR-3. The GI50 with RXF 393 was 0.284 µM (active); with SF-268 it was 0.251 µM (active); in the test on SR it was 18.1 µM (inactive); in the test with 786-0, 0.222 µM (active); in the test on KM12 it was 0.403 µM (active).

On to `COC(=O)CCC(=O)N1CC1C` (stereo unspecified), for which the GI50 in the test on HOP-92 is > 100 µM (inactive); in the test with EKVX, > 100 µM (inactive); with LOX IMVI, > 100 µM (inactive); in the test with SK-MEL-5 it was > 100 µM (inactive); with NCI-H460, > 100 µM (inactive); in the test with HCT-15, above 100 µM. Also, the GI50 in the test with UO-31, in the test on UACC-62, in the test with Malme-3M, with MOLT-4, in the test on NCI-H226 and in the test on OVCAR-3 was > 100 µM (inactive) throughout. In addition, the GI50 in the test on RXF 393, in the test on SF-268, in the test on SR, with 786-0 and with KM12 was > 100 µM (inactive) each time.

In the case of `Cc1cc(O)nc(CNC(=O)c2cccc3ccccc23)n1`, the GI50 with HOP-92 was > 100 µM (inactive); in the test on EKVX, > 100 µM (inactive); in the test with LOX IMVI, > 100 µM (inactive); in the test with SK-MEL-5 it was > 100 µM (inactive); with NCI-H460, > 100 µM (inactive); in the test on HCT-15 it was above 100 µM. For the same compound, the GI50 in the test with UO-31, with UACC-62, in the test with Malme-3M, in the test with MOLT-4, in the test on NCI-H226 and with OVCAR-3 was > 100 µM (inactive) in each case. Further, the GI50 in the test with RXF 393, in the test with SF-268, in the test with SR and in the test with 786-0 was > 100 µM (inactive) each time.

`CNC(=O)N1CN(c2ccccc2)C2(CCN(CCCC(=O)c3ccc(F)cc3)CC2)C1=O`: the GI50 in the test with EKVX was 12.8 µM (inactive); with LOX IMVI, 17.1 µM (inactive); with SK-MEL-5, 11.8 µM (inactive); with HCT-15 it was 15.5 µM; with UO-31, 7.08 µM (inactive); with UACC-62, 18.7 µM (inactive). The GI50 in the test with PC-3 is 31.2 µM (inactive); in the test with Malme-3M, 20 µM (inactive); with MOLT-4, 4.57 µM (inactive); in the test on NCI-H226, 25.5 µM (inactive); with OVCAR-3 it was 18.4 µM (inactive); in the test with RXF 393, 20.5 µM (inactive). In addition, the GI50 in the test on SF-268 is 39.1 µM (inactive); in the test on SR, 21.9 µM (inactive); in the test with 786-0, 26.1 µM (inactive); in the test with KM12, 20.9 µM (inactive).

On to `O=c1[nH]c(=O)n(C2OC(COP(=O)(O)OP(=O)(O)O)C(O)C2O)cc1F` (stereo unspecified), for which the GI50 is > 50 µM (inactive) in the test on HOP-92; 2.44 µM (inactive) in the test on EKVX; 0.251 µM (active) with LOX IMVI; 4.31 µM (inactive) with SK-MEL-5; 0.0453 µM (active) in the test with NCI-H460; 0.446 µM with HCT-15. In addition, the GI50 with UO-31 was 6.08 µM (inactive); with UACC-62, 2.7 µM (inactive); in the test on Malme-3M, 0.726 µM (active); in the test with MOLT-4, 0.877 µM (active); in the test on NCI-H226, 3.13 µM (inactive); in the test with OVCAR-3, 6.34 µM (inactive). Further, the GI50 with RXF 393 is 2.57 µM (inactive); in the test on SF-268, 0.298 µM (active); with SR it was 1.34 µM (inactive); in the test on 786-0, 0.239 µM (active); with KM12, 2.28 µM (inactive).

In the case of `CN1CCC(CN2c3ccccc3Sc3ccccc32)CC1`, the GI50 was 5.69 µM (inactive) in the test with HOP-92; 14.4 µM (inactive) in the test on EKVX; 13.5 µM (inactive) in the test on LOX IMVI; 7.19 µM (inactive) in the test on SK-MEL-5; 14.7 µM (inactive) in the test on NCI-H460; 18.5 µM in the test with HCT-15. For the same compound, the GI50 was 10.1 µM (inactive) with UO-31; 14.8 µM (inactive) in the test with UACC-62; 15.5 µM (inactive) with MOLT-4; 15.4 µM (inactive) with NCI-H226; 15.3 µM (inactive) in the test on OVCAR-3; 3.07 µM (inactive) in the test with RXF 393. For the same compound, the GI50 in the test on SF-268 is 15.4 µM (inactive); with SR, 14.1 µM (inactive); with 786-0, 14.3 µM (inactive); in the test with KM12, 16 µM (inactive).

For the compound `Cc1c(Cl)cccc1NC(=O)C(=O)C1C(=O)NC(=O)NC1=O`, the GI50 in the test on HOP-92 is > 100 µM (inactive); in the test with EKVX, > 100 µM (inactive); in the test with LOX IMVI, > 100 µM (inactive); in the test on SK-MEL-5, > 100 µM (inactive); with NCI-H460 it was > 100 µM (inactive); with HCT-15 it was above 100 µM. Also, the GI50 in the test on UO-31, in the test with UACC-62, with Malme-3M, with MOLT-4, in the test on NCI-H226 and in the test with OVCAR-3 was > 100 µM (inactive) in each case. The GI50 in the test on RXF 393, in the test with SF-268, with SR, in the test with 786-0 and in the test on KM12 was > 100 µM (inactive) each time.

Consider `Nc1nc(N)c2ncn(-c3ccc(Cl)cc3)c2n1`, for which the GI50 in the test on HOP-92 was 24.8 µM (inactive); in the test with EKVX, 10.1 µM (inactive); with LOX IMVI, 36.6 µM (inactive); in the test with SK-MEL-5, 23.6 µM (inactive); in the test with HCT-15, 24.8 µM; in the test with UO-31, 32.3 µM (inactive). For the same compound, the GI50 with UACC-62 was 29.7 µM (inactive); in the test with PC-3, 35.7 µM (inactive); with Malme-3M, 28.4 µM (inactive); in the test on NCI-H226, 39.1 µM (inactive); in the test on OVCAR-3 it was 40.6 µM (inactive); with RXF 393, 19.3 µM (inactive). Further, the GI50 is 70.3 µM (inactive) in the test with 786-0 and 26.8 µM (inactive) in the test on KM12.

In the case of `CS/C(C)=N/OC(=O)NCCCCNc1ccc(N=[N+]=[N-])cc1`, the GI50 was 55.3 µM (inactive) with HOP-92; 45.4 µM (inactive) in the test with EKVX; 26.7 µM (inactive) with LOX IMVI; 16.7 µM (inactive) with SK-MEL-5; 35 µM (inactive) in the test with NCI-H460; 36.9 µM in the test with HCT-15. The GI50 with UO-31 is 20.7 µM (inactive); in the test with UACC-62, 21.8 µM (inactive); with Malme-3M, 32 µM (inactive); in the test on MOLT-4, 28.4 µM (inactive); in the test on NCI-H226, 21 µM (inactive); with OVCAR-3 it was 27.7 µM (inactive). The GI50 is 46 µM (inactive) in the test with RXF 393; 32.7 µM (inactive) in the test with SF-268; 37.8 µM (inactive) with SR; 76.7 µM (inactive) in the test on 786-0; 29.5 µM (inactive) in the test with KM12.

On to `CCOc1ccc(NC(=O)C(=O)NO)cc1`, for which the GI50 is > 100 µM (inactive) in the test on HOP-92; > 100 µM (inactive) in the test with EKVX; > 100 µM (inactive) in the test with LOX IMVI; > 100 µM (inactive) with SK-MEL-5; > 100 µM (inactive) in the test with NCI-H460; above 100 µM with HCT-15. Also, the GI50 in the test on UO-31, in the test with UACC-62, with Malme-3M, in the test with MOLT-4, in the test on NCI-H226 and in the test on OVCAR-3 was > 100 µM (inactive) throughout. In addition, the GI50 with RXF 393 is > 100 µM (inactive); in the test with SF-268, > 100 µM (inactive); in the test on SR, 55.3 µM (inactive); in the test on 786-0, > 100 µM (inactive); with KM12, > 100 µM (inactive).

As to `c1ccc2c(CNCCCCCCNCc3cccc4ccccc34)cccc2c1`, the GI50 in the test with HOP-92 was 6.14 µM (inactive); with EKVX, 13.2 µM (inactive); in the test with LOX IMVI, 1.87 µM (inactive); with SK-MEL-5 it was 7.24 µM (inactive); in the test on NCI-H460, 1.81 µM (inactive); in the test on HCT-15, 6.75 µM. In addition, the GI50 in the test on UO-31 was 11.3 µM (inactive); with UACC-62, 9.73 µM (inactive); with Malme-3M it was 1.95 µM (inactive); in the test on MOLT-4 it was 3.04 µM (inactive); in the test on NCI-H226, 17.4 µM (inactive); in the test with OVCAR-3, 16.4 µM (inactive). The GI50 with RXF 393 is 2.19 µM (inactive); in the test with SF-268, 11.9 µM (inactive); with SR it was 2.14 µM (inactive); with 786-0, 13 µM (inactive); with KM12, 3.66 µM (inactive).
